Values of other authors, collected in patent publication US10925856B2, “Methods and compositions involving bucindolol for the treatment of atrial fibrillation” (priority 2018, dated 2021).
Read-outs that look alike come from different tables or passages of the source.

Tested on: patients with HF and/or AF
Settings: persistent AF recently converted to SR, cited from earlier work

| Structure (SMILES) | AF recurrence rate (Katritsis et al) [%] | AF recurrence rate (Plewan et al) [%] |
| --- | --- | --- |
| COc1ccccc1OCCNCC(O)COc1cccc2[nH]c3ccccc3c12 (stereo not shown) [carvedilol] | 32 | – |
| CC(C)NCC(O)COc1ccc(COCCOC(C)C)cc1 (stereo not shown) [bisoprolol] | 46 | 42 |
| CC(C)NCC(O)c1ccc(NS(C)(=O)=O)cc1 (stereo not shown) [sotalol] | – | 41 |
